# Source: patent US20260216174A1, “TREATMENT OF ER+ BREAST CANCER COMPRISING HOMOLOGOUS RECOMBINATION DEFICIENCY USING PARG INHIBITOR” (IDEAYA BIOSCIENCES, INC., priority 2023, published 2026)
# Assays:
# [1] = test system: HCC1428 tumors; assay: Cell line derived xenograft (CDX) study with HCC1428 tumors; assay type: in vivo, BALB/c nude mice
# Method: For this xenograft, supplemental estradiol benzoate injections (40 μg/20 μl/mouse) are administered subcutaneously twice a week to BALB/c nude mice, starting one week prior to cell implantation and continuing through to the end of study. After implantation, HCC1428 tumor were allocated to treatment arms once a median tumor volume of about 181 mm^3 was reached. In Table 3A the abbreviation “p.o.” refers to oral administration and the abbreviation “QD×28” refers to administration once a day for 28 days.
# Tumors were measured and mice were weighed twice a week during the experimental period. The tumor volume (mm3) was estimated using the formula: TV=a×b2/2, where “a” and “b” were the long and the short diameter of a tumor, respectively. The Tumor volumes were used to calculate tumor growth inhibition (TGI, an indicator of antitumor activity) using the formula: TGI %: (1−{T/T0/Ct/C0}/1−{C0/Ct})×100 where Tt=median tumor volume of treated at time t, T0=median tumor volume of treated at time 0, Ct=median tumor volume of control at time t and C0=median tumor volume of control at time 0.
# For this xenograft, supplemental estradiol benzoate injections (40 μg/20 μl/mouse) are administered subcutaneously twice a week to BALB/c nude mice, starting one week prior to cell implantation and continuing through to the end of study. After implantation, HCC1428 tumor were allocated to treatment arms once a median tumor volume of about 181 mm^3 was reached. In Table 4A the abbreviation “p.o.” refers to oral administration and the abbreviation “QD×28” refers to administration once a day for 28 days.
# Tumors were measured and mice were weighed twice a week during the experimental period. The tumor volume (mm^3) was estimated using the formula: TV=a×b2/2, where “a” and “b” were the long and the short diameter of a tumor, respectively. The Tumor volumes were used to calculate tumor growth inhibition (TGI, an indicator of antitumor activity) using the formula: TGI %: (1−{T/T0/Ct/C0}/1−{C0/Ct})×100 where Tt=median tumor volume of treated at time t, T0=median tumor volume of treated at time 0, Ct=median tumor volume of control at time t and C0=median tumor volume of control at time 0. […] At 100 mg/kg QD the mean tumor volume achieved was 116 mm3, on Day 71. The tumor growth inhibition (TGI) of these treatments compared with vehicle group on Day 28 or 71 of the treatment is summarized in Table 4B (See FIG. 3).
# [2] = test system: HBCx-22 tumor; assay: Patient-derived xenograft (PDX) study with HBCx-22; assay type: in vivo, Athymic Nude-Foxn1^nu mice; details: HBCx-22 PDX; for Regressions (%) / TGI (%) D42: Day 42
# Method: Female Athymic Nude-Foxn1^nu mice with an established growing HBCx-22 tumor between 108 and 288 mm^3 were randomized into 4 treatment groups of 10 mice each, according to the groups listed in Table 5A, tumor-bearing mice receive estrogen diluted in drinking water (β-estradiol, 8.5 mg/l), from the date of tumor implant to the end of the study. In Table 5A, the abbreviation “p.o.” refers to oral administration, the abbreviation “QD” refers to administration once a day, and the abbreviation “BID” refers to administration twice a day.
# Tumors were measured and mice were weighed twice per week during the experimental period. The tumor volume (mm^3) was estimated using the formula: tumor volume (TV)=a×b2/2, where “a” and “b” were the long and the short diameter of a tumor, respectively. The TVs were used to calculate tumor growth inhibition (TGI, an indicator of antitumor activity) using the formula TGI %: (1−{T/T0/Ct/C0}/1−{C0/Ct})×100 where Tt=median tumor volume of treated at time t, T0=median tumor volume of treated at time 0, Ct=median tumor volume of control at time t and C0=median tumor volume of control at time 0. […] Tumor regression represents tumor volume less than the initial tumor volume on D0.
# Female Athymic Nude-Foxn1^nu mice with an established growing HBCx-22 tumor between 108 and 288 mm^3 were randomized into 5 treatment groups of 8 mice each, according to the groups listed in Table 6A, tumor-bearing mice receive estrogen diluted in drinking water (β-estradiol, 8.5 mg/l), from the date of tumor implant to the end of the study. In Table 6A, the abbreviation “p.o.” refers to oral administration, the abbreviation “QD” refers to administration once a day, and the abbreviation “BID” refers to administration twice a day.
# Tumors were measured and mice were weighed twice per week during the experimental period. The tumor volume (mm^3) was estimated using the formula: tumor volume (TV)=a×b2/2, where “a” and “b” were the long and the short diameter of a tumor, respectively. The TVs were used to calculate tumor growth inhibition (TGI, an indicator of antitumor activity) using the formula TGI %: (1−{T/T0/Ct/C0}/1−{C0/Ct})×100 where Tt=median tumor volume of treated at time t, T0=median tumor volume of treated at time 0, Ct=median tumor volume of control at time t and C0=median tumor volume of control at time 0. […] Robust and statistically significant tumor growth inhibition was observed starting at a dose of 30 mpk with 4/8 as shown in Table 6B. Tumor regression represents tumor volume less than the initial tumor volume at DO.
# [3] = 30 mg/kg p.o. QD × 28, Day 28, vs vehicle
# [4] = Compound A study, 30 mg/kg QD p.o.
# [5] = Compound A study, 100 mg/kg QD p.o.
smiles,measurement,setting,value
"C[C@H]1CN(c2cc(S(=O)(=O)NC3(C)CC3)cc3c2cnn3-c2nnc(C(F)F)s2)C[C@H](C)N1 [Compound A, 1-(5-(difluoromethyl)-1,3,4-thiadiazol-2-yl)-4-((3S,5S)-3,5-dimethylpiperazin-1-yl)-N-(1-methylcyclopropyl)-1H-indazole-6-sulfonamide]",TGI (%) D28 or 71,"[1]; 3 mg/kg p.o. QD × 28, Day 28, vs vehicle",23%
same,TGI (%) D28 or 71,[1]; [3],54%
same,TGI (%) D28 or 71,"[1]; 100 mg/kg p.o. QD × 72, Day 71, vs vehicle",103%
same,mean tumor volume,"[1]; Compound A study, 3 mg/kg QD, Day 28",836 mm^3
same,mean tumor volume,"[1]; Compound A study, 30 mg/kg QD, Day 28",570 mm^3
same,mean tumor volume,"[1]; Compound A study, 100 mg/kg QD, Day 71",116 mm3
same,Regressions (%),[2]; 3 mg/kg QD p.o.,0%
same,TGI (%) D42,[2]; 3 mg/kg QD p.o.,0.1%
same,Regressions (%),[2]; 10 mg/kg QD p.o.,0%
same,TGI (%) D42,[2]; 10 mg/kg QD p.o.,31.8%
same,Regressions (%),[2]; [4],50%
same,TGI (%) D42,[2]; [4],83.4%
same,Regressions (%),[2]; [5],62%
same,TGI (%) D42,[2]; [5],108.5%
same,tumor regression (mice),"[2]; Compound A study, 30 mpk",4/8
CC(C)C(=O)N1CCN(c2cc(S(=O)(=O)NC3(C#N)CC3)cc3c2cnn3-c2nnc(C(F)F)s2)C[C@H]1C [Compound B],TGI (%) D28,[1]; [3],81.7%
same,TGI (%) D28,"[1]; 100 mg/kg p.o. QD × 28, Day 28, vs vehicle",89.0%
same,TGI (%) D28,"[1]; 300 mg/kg p.o. QD × 28, Day 28, vs vehicle",94.6%
same,mean tumor volume,"[1]; Compound B study, 30 mg/kg QD, Day 28",165 mm^3
same,mean tumor volume,"[1]; Compound B study, 100 mg/kg QD, Day 28",103 mm^3
same,mean tumor volume,"[1]; Compound B study, 300 mg/kg QD, Day 28",50 mm^3
same,Regressions (%),[2]; 30 mg/kg QD p.o.,10%
same,TGI (%) D42,[2]; 30 mg/kg QD p.o.,58.6%
same,partial regressions (mice),[2]; 30 mg/kg once daily,1/10
same,tumor stabilization,[2]; 30 mg/kg once daily,tumor stabilization for all mice
same,TGI (%) D42,[2]; 100 mg/kg BID p.o. (200 mg/kg/day),110.4%
same,Regressions (%),[2]; 100 mg/kg BID p.o.,60%
same,Regressions (%),[2]; 100 mg/kg QD p.o.,30%
same,TGI (%) D42,[2]; 100 mg/kg QD p.o.,97.3%
same,partial tumor regression (mice),[2]; 100 mg/kg once daily,3/10
same,partial tumor regression (mice),[2]; 100 mg/kg twice daily (200 mg/kg/day),6/10
